{"source": "patent US9511061B2", "about": "“Incontinence treatment methods” (IXALTIS, priority 2005, dated 2016)", "key": {"[1]": {"system": "anaesthetized female rabbits under conditions of vesical irritation", "experiment": "Activity of the striated anal sphincter (EMG-SAS) and vesical capacity in anaesthetized female rabbits under vesical irritation by diluted acetic acid", "format": "in vivo, rabbit", "text": "The effect of 4-[(2-naphthalenyl)-methoxy]-piperidine (compound A) and of its solvent (NaCl 0.9%) on the electromyographic activity of the striated anal sphincter (EMG-SAS), used as a marker of the activity of the urethral sphincter, and on the vesical capacity (VC) was studied in vivo in anaesthetized female rabbits under conditions of vesical irritation induced by intra-vesical perfusion of diluted acetic acid (Perez Martinez et al., 2006 and Haab et al., 2006). […] 16 New Zealander female white rabbits (2.5-3.5 kg) anaesthetized by intramuscular injection of a mixture of ketamin (25 mg/kg) and sylazin (10 mg/kg), were subject to cystostomy. After laparotomy by median incision, a catheter was introduced at the dome of the bladder and held in place by a purse suture. A multiperforable plug was placed at the end of the catheter, and then the catheter was internalized subcutaneously and attached at the abdomen with a silk ligature. 3 days after cystotomy, cystomanometry was performed on animals anaesthetized with halothane (2-3%). A T-tube was connected at the multiperformable plug, and then connected to a pressure sensor (Letica, PanLab) and to a micro-pump allowing perfusion of the bladder (Razel 99, Scientific Instruments). […] The micturitional profile was continuously recorded by means of a data acquisition system (PowerLab 4/25, PanLab) and the different urodynamic parameters, including vesical capacity (VC), were determined. […] The electric signal, amplified and filtered (bandwidth 1 Hz-5 kHz) was continuously recorded by means of the data acquisition system. EMG-SAS was measured during the phase for filling the bladder, in order to get rid of the parasitics related to perineal movements occurring during micturition.\nA catheter was implanted at the vein of the ear in order to allow administration of compound A or of its solvent (NaCl 0.9%) in a volume of 1 mL. […] During a stabilization period (SP) of at least 60 minutes, during which the bladder was perfused, in order to induce regular micturitional cycles, two consecutive doses (1 and 3 mg/kg of compound A or of solvent were administered intravenously, at intervals of 40 minutes. For each of the tested doses, the effects of the compound A and of its solvent on EMG-SAS and on VC were expressed as a percentage of the stabilization period (mean±standard error of mean). During the stabilization period, the parameters obtained in both experimental groups (compound A and solvent) were the same (p>0.05; Kruskal-Wallis test): for EMG-SAS, 1.76±1.04 (n=8) and 1.41±0.59 activity peaks/minute (n=8), for the compound A and its solvent and for VC, respectively, 21.63±4.92 (n=8) and 18.31±2.90 mL (n=8), for the compound A and its solvent respectively. […]"}, "[2]": {"system": "anaesthetized female rats under vesical irritation conditions", "experiment": "Vesical capacity in anaesthetized female rats under vesical irritation by diluted acetic acid", "format": "in vivo, rat", "settings": "2 mg/kg i.v., mean±SEM, n=8", "method": "After laparotomy, a bursa was formed at the dome of the bladder, and then a catheter was introduced and ligatured at this bursa. A catheter was implanted at the jugular vein in order to allow administration of the compound A or its solvent. Cystomanometry was performed on the animals placed beforehand on a heating plate, in order to maintain their body temperature around 37° C. A 3-way valve was positioned at the end of the vesical catheter and then connected to a pump allowing perfusion of the bladder (Model “11” plus, Harvard Apparatus) and to a pressure sensor (MX 860/866 Novatrans, Medex Medical). Diluted acetic acid (0.3%) held at room temperature was perfused into the bladder (3 mL/h) in order to induce successive micturitions under vesical irritation conditions. The micturitional profile was continuously recorded by means of a data acquisition system (MacLab/8^e, AD Instruments) and the different urodynamic parameters, including vesical capacity (VC) were determined. […] The compound A (2 mg/kg) or its solvent were then injected intravenously in a volume of 1 mL administered within 5 minutes by means of a syringe pump (Model A-99, Fisher Bioblock Scientific). The effects of the compound A and of its solvent on VC were evaluated at times, 20, 40 and 60 minutes after administration and expressed as a percentage of variation of the basal value (mean±standard error of mean). In both experimental groups (compound A and solvent), the basal values of VC were the same (p>0.05; analysis of variance): 0.045±0.005 mL and 0.042±0.006 mL for the solvent (n=11) and the compound A (n=8), respectively. […] (see compound A group (n=8) in FIG. 2)."}, "human detrusor muscle": {"system": "human detrusor muscle", "experiment": "Electrically stimulated human detrusor muscle strips in vitro", "method": "The effect of the compound A and of its solvent (Krebs solution) was tested in vitro on bladder strips taken on two male patients within the scope of a radical cystectomy because of an urothelial carcinoma. The strips were mounted in baths with isolated organs, containing a Krebs solution, heated to 37° C. and oxygenated with carbogen (95% O2 and 5% CO2). After a 60 minute stabilization period, the viability of the strips was tested by performing a contraction with 80 mM KCl. After 30 minutes of wash-out and stabilization, the strips were submitted to electric field stimulation, in order to cause neurogenic contractions. The electric stimulation parameters used were the following: frequency: 30 Hz, maximum voltage, pulse duration 0.1 ms, 5 second pulse trains every 100 s. After stabilization of the neurogenic response (about 30 minutes after beginning of the electric stimulation), a range of cumulative concentration-response curves for the compound A was obtained between 0.01-100 μM. It was shown that from 10 μM, the compound A inhibits in a concentration-dependent way, the contractile response of the detrusor muscle strips to electric stimulation with inhibition percentages of 20.1±4.7% at 10 μM, 41.7±5.2% at 30 μM and 80.8±6.8% at 100 μM. Tested under the same conditions, the solvent of the compound A has an inhibiting effect of the order of 10% on the contractions of the detrusor muscle."}, "5-HT1A": {"target": "5-HT1A (Homo sapiens (Human), UniProt P08908)", "sequence (P08908 whole entry)": "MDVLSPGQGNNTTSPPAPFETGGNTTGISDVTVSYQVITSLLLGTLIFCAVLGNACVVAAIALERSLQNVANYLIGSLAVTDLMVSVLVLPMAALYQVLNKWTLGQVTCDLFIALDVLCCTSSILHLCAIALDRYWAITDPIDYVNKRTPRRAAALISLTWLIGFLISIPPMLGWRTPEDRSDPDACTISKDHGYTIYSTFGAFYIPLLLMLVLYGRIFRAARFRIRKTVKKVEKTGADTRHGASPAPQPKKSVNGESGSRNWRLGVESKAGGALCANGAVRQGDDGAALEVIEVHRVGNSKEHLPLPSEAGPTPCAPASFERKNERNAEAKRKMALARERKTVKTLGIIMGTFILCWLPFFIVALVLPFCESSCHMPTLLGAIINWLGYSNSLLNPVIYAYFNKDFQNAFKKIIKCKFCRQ", "experiment": "Binding test on cloned human serotoninergic receptor", "method": "(§1) The affinity of the compound A was evaluated in vitro on 8 cloned human serotoninergic receptors by measuring the specific binding of the ligands to the corresponding receptors according to methods adapted from Mulheron (1994), Bryant (1996), Choi (1994), Hope (1996), Mialet (2000), Rees (1994) and Shen (1993)."}, "5-HT2A (agonist)": {"target": "5-HT2A (agonist) (Homo sapiens (Human), UniProt P28223)", "sequence (P28223 whole entry)": "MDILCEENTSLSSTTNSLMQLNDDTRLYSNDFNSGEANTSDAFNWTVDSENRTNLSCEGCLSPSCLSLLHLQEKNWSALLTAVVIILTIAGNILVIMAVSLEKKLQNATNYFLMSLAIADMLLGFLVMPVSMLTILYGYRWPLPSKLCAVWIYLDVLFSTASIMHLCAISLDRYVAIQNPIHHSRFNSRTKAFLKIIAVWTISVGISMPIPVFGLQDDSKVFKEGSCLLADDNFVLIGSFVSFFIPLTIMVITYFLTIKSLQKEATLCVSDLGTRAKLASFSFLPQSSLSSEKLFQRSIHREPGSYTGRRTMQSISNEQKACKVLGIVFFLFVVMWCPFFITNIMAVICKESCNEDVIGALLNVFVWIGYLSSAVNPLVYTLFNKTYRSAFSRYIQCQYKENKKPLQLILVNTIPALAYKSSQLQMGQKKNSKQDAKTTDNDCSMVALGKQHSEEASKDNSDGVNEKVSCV", "experiment": "Binding test on cloned human serotoninergic receptor", "settings": "5-HT2A (agonist) site", "method": "as §1"}, "5-HT2B (agonist)": {"target": "5-HT2B (agonist) (Homo sapiens (Human), UniProt P41595)", "sequence (P41595 whole entry)": "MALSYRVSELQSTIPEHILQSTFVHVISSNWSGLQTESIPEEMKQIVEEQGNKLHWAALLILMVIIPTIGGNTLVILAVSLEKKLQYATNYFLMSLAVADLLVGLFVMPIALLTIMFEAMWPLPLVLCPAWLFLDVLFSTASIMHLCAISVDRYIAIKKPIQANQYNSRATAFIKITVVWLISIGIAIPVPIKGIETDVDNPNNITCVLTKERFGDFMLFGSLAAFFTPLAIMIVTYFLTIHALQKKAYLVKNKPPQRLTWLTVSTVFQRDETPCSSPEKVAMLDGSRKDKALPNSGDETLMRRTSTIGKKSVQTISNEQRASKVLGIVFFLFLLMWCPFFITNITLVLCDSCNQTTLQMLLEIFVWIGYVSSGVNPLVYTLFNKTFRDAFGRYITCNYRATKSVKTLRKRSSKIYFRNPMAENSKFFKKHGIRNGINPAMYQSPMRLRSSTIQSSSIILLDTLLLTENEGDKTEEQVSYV", "experiment": "Binding test on cloned human serotoninergic receptor", "settings": "5-HT2B (agonist) site", "method": "as §1"}, "5-HT2C (agonist)": {"target": "5-HT2C (agonist) (Homo sapiens (Human), UniProt P28335)", "sequence (P28335 33-458)": "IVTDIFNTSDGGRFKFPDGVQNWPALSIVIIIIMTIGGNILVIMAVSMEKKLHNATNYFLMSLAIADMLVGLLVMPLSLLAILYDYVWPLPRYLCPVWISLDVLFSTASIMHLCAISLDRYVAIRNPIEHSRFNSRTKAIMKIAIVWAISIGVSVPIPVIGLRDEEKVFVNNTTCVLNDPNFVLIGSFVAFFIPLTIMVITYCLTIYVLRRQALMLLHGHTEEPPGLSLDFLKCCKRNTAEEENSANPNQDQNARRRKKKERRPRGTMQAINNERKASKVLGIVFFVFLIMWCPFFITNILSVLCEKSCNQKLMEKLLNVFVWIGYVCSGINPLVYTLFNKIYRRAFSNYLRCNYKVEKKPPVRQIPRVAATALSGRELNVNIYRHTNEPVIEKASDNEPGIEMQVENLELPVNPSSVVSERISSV", "experiment": "Binding test on cloned human serotoninergic receptor", "settings": "5-HT2C (agonist) site", "method": "as §1"}, "5-HT3": {"target": "5-HT3 (Homo sapiens (Human), UniProt P46098)", "sequence (P46098 24-478)": "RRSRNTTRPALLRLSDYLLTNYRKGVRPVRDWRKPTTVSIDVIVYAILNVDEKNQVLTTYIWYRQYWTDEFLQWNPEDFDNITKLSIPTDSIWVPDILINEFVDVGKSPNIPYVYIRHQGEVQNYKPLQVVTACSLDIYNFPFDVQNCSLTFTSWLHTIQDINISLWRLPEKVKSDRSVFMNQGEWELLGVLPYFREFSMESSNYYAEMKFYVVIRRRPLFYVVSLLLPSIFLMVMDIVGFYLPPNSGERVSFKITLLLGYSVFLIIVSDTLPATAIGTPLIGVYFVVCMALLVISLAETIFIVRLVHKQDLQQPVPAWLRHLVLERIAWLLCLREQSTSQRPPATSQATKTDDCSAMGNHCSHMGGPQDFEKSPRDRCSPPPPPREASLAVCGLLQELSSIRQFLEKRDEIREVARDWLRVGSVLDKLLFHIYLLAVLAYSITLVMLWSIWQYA", "experiment": "Binding test on cloned human serotoninergic receptor", "method": "as §1"}, "5-HT4e": {"target": "5-HT4e (Homo sapiens (Human), UniProt Q13639)", "sequence (Q13639 other isoform, or with tags, fused parts or gaps)": "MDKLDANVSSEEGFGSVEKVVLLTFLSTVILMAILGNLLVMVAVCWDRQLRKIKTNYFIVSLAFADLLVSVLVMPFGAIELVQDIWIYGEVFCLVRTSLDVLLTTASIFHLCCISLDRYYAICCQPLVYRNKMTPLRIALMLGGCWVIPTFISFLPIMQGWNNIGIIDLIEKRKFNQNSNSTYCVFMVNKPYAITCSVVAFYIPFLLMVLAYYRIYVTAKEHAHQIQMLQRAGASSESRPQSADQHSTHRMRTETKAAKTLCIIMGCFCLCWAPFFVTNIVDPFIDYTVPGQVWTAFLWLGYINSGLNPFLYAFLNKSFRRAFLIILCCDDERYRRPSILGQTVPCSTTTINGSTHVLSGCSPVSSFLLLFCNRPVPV", "experiment": "Binding test on cloned human serotoninergic receptor", "method": "as §1"}, "5-HT5A": {"target": "5-HT5A (Homo sapiens (Human), UniProt P47898)", "sequence (P47898 whole entry)": "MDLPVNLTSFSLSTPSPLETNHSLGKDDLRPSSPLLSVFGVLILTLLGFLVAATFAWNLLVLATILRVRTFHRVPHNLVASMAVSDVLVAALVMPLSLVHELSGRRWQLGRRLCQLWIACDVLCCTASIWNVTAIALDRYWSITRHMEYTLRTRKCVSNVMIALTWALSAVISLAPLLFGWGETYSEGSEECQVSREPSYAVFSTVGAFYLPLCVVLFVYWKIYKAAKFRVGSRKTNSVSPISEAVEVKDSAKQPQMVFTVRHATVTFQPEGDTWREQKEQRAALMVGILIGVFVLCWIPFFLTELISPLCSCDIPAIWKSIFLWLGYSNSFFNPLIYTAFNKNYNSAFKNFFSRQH", "experiment": "Binding test on cloned human serotoninergic receptor", "method": "as §1"}, "5-HT7": {"target": "5-HT7 (Homo sapiens (Human), UniProt P34969)", "sequence (P34969 whole entry)": "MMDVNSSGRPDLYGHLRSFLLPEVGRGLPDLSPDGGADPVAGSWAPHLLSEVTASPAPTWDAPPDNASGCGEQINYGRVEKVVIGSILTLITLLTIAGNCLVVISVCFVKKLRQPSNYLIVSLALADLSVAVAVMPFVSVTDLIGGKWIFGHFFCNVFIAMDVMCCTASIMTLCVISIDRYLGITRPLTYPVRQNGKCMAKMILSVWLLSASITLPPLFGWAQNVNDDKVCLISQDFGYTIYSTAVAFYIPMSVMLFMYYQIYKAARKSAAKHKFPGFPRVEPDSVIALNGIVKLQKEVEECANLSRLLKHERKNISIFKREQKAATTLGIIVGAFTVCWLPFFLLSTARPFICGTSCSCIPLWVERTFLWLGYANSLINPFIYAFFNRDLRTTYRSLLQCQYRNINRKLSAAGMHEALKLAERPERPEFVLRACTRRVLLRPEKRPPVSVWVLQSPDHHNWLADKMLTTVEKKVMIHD", "experiment": "Binding test on cloned human serotoninergic receptor", "method": "as §1"}, "human 5-HT2C receptor": {"target": "human 5-HT2C receptor (Homo sapiens (Human), UniProt P28335)", "sequence (P28335 33-458)": "as the sequence (P28335 33-458) above", "experiment": "Cellular functional test ([35S]GTPγS binding) on cloned human 5-HT2C receptor in CHO cells", "format": "cell-based", "method": "The agonistic and antagonistic activities of the compound A were evaluated in vitro on the human 5-HT2C receptor expressed in Chinese hamster ovarian cells (CHO cells) in a range of concentrations comprised between 1 nM and 100 μM by quantitation of the binding of the specific ligand of the receptor, [^35S]GTPγS, according to a method adapted from Adlersberg (2000) and from Cussac (2002)."}, "[3]": {"system": "5-HT7 receptor in isolated rat bladder", "experiment": "Potentialization by serotonin of the neurogenic response of isolated rat bladder (5-HT7 antagonistic functional test)", "settings": "after incubation with 10 μM of compound A; n=6; solvent 52.7±7.3%", "protocol": "The effect of the compound A and of its solvent (Krebs solution) on the potentialization by serotonin of the neurogenic response of isolated rat bladder was studied in vitro. Strips of detrusor muscle taken from Wistar female rats (250-300 grams) were mounted in baths with isolated organs, containing a Krebs solution, heated to 37° C. and oxygenated with carbogen (95% O2 and 5% CO2). After a 60 minute stabilization period, contraction with 80 mM KCl was achieved. After 30 minutes of wash-out and stabilization, the strips were submitted to electric field stimulation, in order to cause neurogenic contractions. The electric stimulation parameters used were the following: frequency: 5 Hz, maximal voltage, pulse duration 0.3 ms, 10 second pulse trains every 60 s. The compound A and its solvent are incubated for 60 minutes, 30 minutes without electric stimulation and 30 minutes during the phase for stabilizing the neurogenic response. After stabilization, a 5-HT cumulative concentration-response curve range was achieved between 0.01-100 μM."}, "adrenergic receptors α1": {"target": "adrenergic receptors α1", "experiment": "Affinity for adrenergic receptors", "format": "binding"}, "adrenergic receptors α2": {"target": "adrenergic receptors α2", "experiment": "Affinity for adrenergic receptors", "format": "binding"}, "adrenergic receptors β": {"target": "adrenergic receptors β", "experiment": "Affinity for adrenergic receptors", "format": "binding"}, "muscarinic receptors": {"target": "muscarinic receptors", "experiment": "Affinity for muscarinic receptors", "format": "binding"}, "[4]": {"system": "recapture of serotonine (5-HT) as compared with that of norepinephrine (NE)", "settings": "selectivity, Scatton 1988; cited from earlier work"}, "[5]": {"system": "recapture of serotonin as compared with that for dopamine (DA)", "settings": "selectivity, Scatton 1988; cited from earlier work"}, "[6]": {"settings": "1 mg/kg intravenously, relative to stabilization period"}}}
{"compound": "c1ccc2cc(COC3CCNCC3)ccc2c1", "note": "[Compound A, 4-[(2-naphthalenyl)-methoxy]-piperidine]", "values": [{"measurement": "effect on EMG-SAS (electromyographic activity of the striated anal sphincter)", "setting": "[1]; [6]", "value": "did not induce any significant effect"}, {"measurement": "effect on vesical capacity (VC)", "setting": "[1]; [6]", "value": "did not induce any significant effect"}, {"measurement": "increase in EMG-SAS, percentage of the stabilization period", "setting": "[1]; 3 mg/kg intravenously, mean±SEM, n=7, p=0.018", "value": "1,521.90±966.61%"}, {"measurement": "increase in VC, percentage of the stabilization period", "setting": "[1]; 3 mg/kg intravenously, mean±SEM, n=8", "value": "123.29±11.62", "unit": "%"}, {"measurement": "increase in VC, percentage of variation of the basal value", "setting": "[2]; 20 minutes after administration", "value": "46.25±16.40", "unit": "%"}, {"measurement": "increase in VC, percentage of variation of the basal value", "setting": "[2]; 40 minutes after administration", "value": "44.61±17.51", "unit": "%"}, {"measurement": "increase in VC, percentage of variation of the basal value", "setting": "[2]; 60 minutes after administration", "value": "60.34±17.8", "unit": "%"}, {"measurement": "inhibition of the contractile response of detrusor muscle strips to electric stimulation", "setting": "human detrusor muscle; 10 μM", "value": "20.1±4.7", "unit": "%"}, {"measurement": "inhibition of the contractile response of detrusor muscle strips to electric stimulation", "setting": "human detrusor muscle; 30 μM", "value": "41.7±5.2", "unit": "%"}, {"measurement": "inhibition of the contractile response of detrusor muscle strips to electric stimulation", "setting": "human detrusor muscle; 100 μM", "value": "80.8±6.8", "unit": "%"}, {"measurement": "inhibition of the specific binding of the control", "setting": "5-HT1A", "value": 14, "unit": "%"}, {"measurement": "IC50", "setting": "5-HT2A (agonist)", "value": 1000, "unit": "nM"}, {"measurement": "Ki", "setting": "5-HT2A (agonist); Cheng Prusoff", "value": 620, "unit": "nM"}, {"measurement": "IC50", "setting": "5-HT2B (agonist)", "value": 1000, "unit": "nM"}, {"measurement": "Ki", "setting": "5-HT2B (agonist); Cheng Prusoff", "value": 980, "unit": "nM"}, {"measurement": "IC50", "setting": "5-HT2C (agonist)", "value": 250, "unit": "nM"}, {"measurement": "Ki", "setting": "5-HT2C (agonist); Cheng Prusoff", "value": 200, "unit": "nM"}, {"measurement": "IC50", "setting": "5-HT3", "value": 1400, "unit": "nM"}, {"measurement": "Ki", "setting": "5-HT3; Cheng Prusoff", "value": 720, "unit": "nM"}, {"measurement": "IC50", "setting": "5-HT4e", "value": 4700, "unit": "nM"}, {"measurement": "Ki", "setting": "5-HT4e; Cheng Prusoff", "value": 1600, "unit": "nM"}, {"measurement": "inhibition of the specific binding of the control", "setting": "5-HT5A", "value": 1, "unit": "%"}, {"measurement": "IC50", "setting": "5-HT7", "value": 7200, "unit": "nM"}, {"measurement": "Ki", "setting": "5-HT7; Cheng Prusoff", "value": 2600, "unit": "nM"}, {"measurement": "antagonistic activity", "setting": "human 5-HT2C receptor; 10 μM", "value": 18, "unit": "%"}, {"measurement": "agonistic activity", "setting": "human 5-HT2C receptor; 3.10^−5 M (plateau)", "value": 44, "unit": "%"}, {"measurement": "agonistic activity", "setting": "human 5-HT2C receptor; 10^−4 M (plateau)", "value": 42, "unit": "%"}, {"measurement": "IC50", "setting": "human 5-HT2C receptor; agonistic activity, [35S]GTPγS, CHO cells, read-out: IC50 (partial agonist for the 5-HT2C receptor)", "value": 1500, "unit": "nM"}, {"measurement": "antagonistic activity", "setting": "human 5-HT2C receptor; between 1 nM and 1 μM", "value": "Without any significant antagonistic activity"}, {"measurement": "maximum response of 5-HT, % of the reference contraction induced by 80 mM KCl", "setting": "[3]", "value": "18.7±3.2", "unit": "%"}, {"measurement": "IC50", "setting": "adrenergic receptors α1", "value": 40000, "unit": "nM"}, {"measurement": "IC50", "setting": "adrenergic receptors α2", "value": 70000, "unit": "nM"}, {"measurement": "IC50", "setting": "adrenergic receptors β", "value": 100000, "unit": "nM"}, {"measurement": "IC50", "setting": "muscarinic receptors", "value": 99000, "unit": "nM"}, {"measurement": "IC50 NE/HT ratio", "setting": "[4]", "value": 89}, {"measurement": "IC50 DA/HT ratio", "setting": "[5]", "value": 188}]}
